Key:
Test in all cases: relative viability (nuclei count vs DMSO), 5 days (fraction); higher = more cells survive
Ibrutinib + Pemetrexed = compound: C=CC(=O)N1CCC[C@@H](n2nc(-c3ccc(Oc4ccccc4)cc3)c3c(N)ncnc32)C1 [Ibrutinib] + Nc1nc2[nH]cc(CCc3ccc(C(=O)N[C@@H](CCC(=O)O)C(=O)O)cc3)c2c(=O)[nH]1 [Pemetrexed] (partner 0.2 µM)
How it was run: (§1)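 Lung cancer cell lines in 1536-well plates got either a single drug or a fixed anchor-drug dose together with five library-drug doses (not always all listed) in √10 steps, by pin tool, on the day after seeding. Nuclei were counted after 5 days, and relative viability is the treated-to-vehicle ratio of nuclei counts. Values are medians of duplicate plates.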

PAC-1 + Decitabine = compound: C=CCc1cccc(/C=N/NC(=O)CN2CCN(Cc3ccccc3)CC2)c1O [PAC-1] + Nc1ncn([C@H]2C[C@H](O)[C@@H](CO)O2)c(=O)n1 [Decitabine] (partner 2 µM)
How it was run: as §1

PAC-1 + AZD7762 = compound: C=CCc1cccc(/C=N/NC(=O)CN2CCN(Cc3ccccc3)CC2)c1O [PAC-1] + NC(=O)Nc1cc(-c2cccc(F)c2)sc1C(=O)N[C@H]1CCCNC1 [AZD7762] (partner 0.2 µM)
How it was run: as §1

PAC-1 + Alpelisib = compound: C=CCc1cccc(/C=N/NC(=O)CN2CCN(Cc3ccccc3)CC2)c1O [PAC-1] + Cc1nc(NC(=O)N2CCC[C@H]2C(N)=O)sc1-c1ccnc(C(C)(C)C(F)(F)F)c1 [Alpelisib] (partner 2 µM)
How it was run: as §1

| Cell Line | relative viability (Ibrutinib + Pemetrexed; first compound 0.005 µM) | relative viability (Ibrutinib + Pemetrexed; first compound 0.01581 µM) | relative viability (Ibrutinib + Pemetrexed; first compound 0.05 µM) | relative viability (Ibrutinib + Pemetrexed; first compound 0.1581 µM) | relative viability (Ibrutinib + Pemetrexed; first compound 0.5 µM) | relative viability (PAC-1 + Decitabine; first compound 0.02 µM) | relative viability (PAC-1 + Decitabine; first compound 0.06325 µM) | relative viability (PAC-1 + Decitabine; first compound 0.2 µM) | relative viability (PAC-1 + Decitabine; first compound 2 µM) | relative viability (PAC-1 + AZD7762; first compound 0.02 µM) | relative viability (PAC-1 + AZD7762; first compound 0.06325 µM) | relative viability (PAC-1 + AZD7762; first compound 0.2 µM) | relative viability (PAC-1 + AZD7762; first compound 2 µM) | relative viability (PAC-1 + Alpelisib; first compound 0.06325 µM) | relative viability (PAC-1 + Alpelisib; first compound 0.2 µM) | relative viability (PAC-1 + Alpelisib; first compound 2 µM) | relative viability (PAC-1 + Alpelisib; first compound 0.02 µM) |
| --- | --- | --- | --- | --- | --- | --- | --- | --- | --- | --- | --- | --- | --- | --- | --- | --- | --- |
| EPLC-272H | 0.317 | 0.325 | 0.412 | 0.268 | 0.344 | 0.369 | 0.39 | 0.342 | 0.324 | 0.177 | 0.295 | 0.134 | 0.22 | 0.96 | 0.817 | 0.764 |  |
| H3255 | 0.511 | 0.553 | 0.456 | 0.557 | 0.407 | 0.593 | 0.849 | 0.534 | 0.63 | 0.993 | 0.802 | 0.772 | 0.931 | 0.78 | 0.702 | 0.717 | 0.823 |
| HARA | 0.243 | 0.22 | 0.249 | 0.207 | 0.242 | 0.573 | 0.688 | 0.507 | 0.487 | 0.229 | 0.304 | 0.0838 | 0.457 | 0.809 | 0.779 | 0.928 | 0.735 |
| HCC-15 | 0.238 | 0.223 | 0.238 | 0.235 | 0.322 | 0.628 | 0.685 | 0.56 | 0.599 | 1.34 | 1.35 | 0.884 | 1.35 | 0.831 | 0.854 | 0.851 | 0.924 |
| HCC-44 | 0.711 | 0.669 | 0.624 | 0.64 | 0.987 | 1.03 | 0.914 | 0.855 | 0.933 | 1.09 | 0.998 | 1.03 | 0.992 | 0.875 | 0.774 | 0.855 | 0.782 |
| HCC-78 |  | 0.84 | 0.892 | 0.879 | 0.93 | 0.749 | 0.639 | 0.529 | 0.649 | 0.676 | 0.558 | 0.596 | 0.573 | 0.373 | 0.368 | 0.303 | 0.308 |
| HCC-366 | 0.259 | 0.247 | 0.307 | 0.241 | 0.704 | 0.373 | 0.303 | 0.264 | 0.337 | 0.265 | 0.309 | 0.251 | 0.312 | 0.52 | 0.335 | 0.437 | 0.409 |
| HCC-827 | 0.22 | 0.248 | 0.24 | 0.246 | 0.168 | 0.354 | 0.285 | 0.277 | 0.292 | 0.239 | 0.191 | 0.235 | 0.237 | 0.927 | 0.895 | 1 | 0.964 |
| HOP-62 | 0.415 | 0.32 | 0.434 | 0.446 | 0.879 | 0.255 | 0.213 | 0.177 | 0.236 | 0.822 | 0.623 | 0.577 | 0.515 | 0.875 | 0.798 | 0.85 | 1.07 |

— the supplement of paper PMC10307832
